Results on four molecules are retold here after PMC10206040, “Identification of novel anti-amoebic pharmacophores from kinase inhibitor chemotypes” (Frontiers in Microbiology, 2023).

SMILES strings stand for the structures. “Also recorded” adds a separate entry of the source. Like-named read-outs stand apart in the source and are kept apart here.

By EC50 is commonly meant the concentration at which the effect is half-maximal. By CC50 is commonly meant the concentration at which the toxic effect on the cells reaches its halfway point. The low end stands for greater toxicity to the cells, the high end for lower toxicity to the cells.

Series [1] deals with Acanthamoeba castellanii T4 isolate (ATCC 50370) trophozoites. Kind of series: CellTiter-Glo 2.0 trophocidal assay, A. castellanii. The conditions noted are these: Acanthamoeba castellanii, ATCC50370, 72 h, read-out: Acanthamoeba castellanii EC50 ± SD. The class given is cell-based. An excerpt:
This isolate was purchased from American Type Culture Collection (ATCC). […] For sub-culturing, cells were mechanically harvested to detach the cells from the culture flasks.
For orientation: Cellular ATP, detected with luciferase, serves as a proxy for viable cell number.

The conditions of series [2]: cited from earlier work; for in vivo toxicity in PK study: dosed I.P. at 10 mg/kg, ref Tear et al., 2020; for blood/brain ratio: 10 mg/kg I.P., 2019.
For series [3], the system named is Naegleria fowleri (ATCC 30215) trophozoites. Kind of series: microbe, parasite or virus in culture. The conditions noted are these: Naegleria fowleri, read-out: Naegleria fowleri EC50 ± SD, logarithmic trophozoites, 72 h, n = 3 (converted). An outline of the steps:
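Logarithmic-phase axenic trophozoites in Nelson's complete medium with 10% FBS, exposed to compound 72 h at 34°C, 5% CO2. Viability read as ATP luminescence (CellTiter-Glo 2.0); values from at least three biological replicates with SD.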

Series [4] has as its system Balamuthia mandrillaris (CDC:V039; ATCC 50209) trophozoites. Kind of series: CellTiter-Glo 2.0 trophocidal assay, B. mandrillaris. The class given is cell-based. The conditions noted are these: Balamuthia mandrillaris, ATCC50209, 72 h, read-out: Balamuthia mandrillaris EC50 ± SD. An excerpt:
For sub-culturing, 0.25% Trypsin–EDTA (Gibco) cell detachment reagent was used to detach the cells from the culture flasks.

Series [5] in a line: Human fetal lung fibroblast (MRC5) cell cytotoxicity assay (resazurin). The conditions noted are these: human, MRC5 cells (human fetal lung fibroblasts). The procedure: (§1) Intermediate plates were made as described, adding 95 μL of DMEM complete media to 5 μL of compound per well setting a 5% DMSO amount. Log-phase MRC5 cells were removed from a T-75 TC flask using TrypLE® Express (Thermo®) and dispersed by gentle pipetting. Cell density was adjusted to working concentration in prewarmed DMEM medium: 25,000 cells in 90 μL of culture were plated in 96-well transparent Nunclon plates and allowed to settle for 24 h at 37°C and 5% CO2. […] Plates were incubated for 48 h at 37°C and 5% CO2. At 4 h prior to fluorescence measurement, 20 μL of 500 μM resazurin solution was added.
(§2) A four-parameter equation was used to fit the dose–response curves and determination of EC50 by SigmaPlot ® 13.0 software. Assays were performed in duplicate at least twice for positive compounds, to achieve a minimal […] per dose response.
(In general: Alamar Blue is a resazurin reagent that responds to reducing activity.)

For a further series, the system named is MRC5 cells. The description is as above. To be noted: Table S2; in µM. The procedure: as §1, §2
A short description of series [6]: Rat skeletal muscle cell line (L6) cytotoxicity assay (resazurin). To be noted: rat, L6 cells (rat skeletal muscle cell line). On the procedure: (§3) One hundred microliters (100 μL) per well of culture medium containing the compounds and controls were added to L6 cells previously cultured (4 × 10^3 L6 cells per well). After 72 h at 37°C the medium was exchanged, and the viable cell number was determined by resazurin (Sigma–Aldrich) reduction. 20 μl of resazurin (1.1 mg/ml) was added to each well and incubated in the dark for 2 h at 37°C.

Another series concerns L6 cells. Described as above. The conditions noted are these: Table S2; in µM. On the procedure:
as §3

The subject of the next series is THP-1. Kind of series: Cytotoxicity assay in THP-1 (MTT). The class given is cell-based. The conditions noted are these: Table S2, 72 h, maximal concentration 50 μM. The procedure:
Cytotoxicity assay in TH P-1. Cellular toxicity of all compounds was determined using the colorimetric MTT-based assay after incubation at 37 °C for 72 h in the presence of increasing concentrations of compounds (final maximal concentration was 50 μM in 0.5% DMSO per well) [ 1] . The results are expressed […]
cells. Assays were performed in duplicate at least twice to achieve a minimal n=3 per dose response. […]
Cytotoxicity assay in THP-1. Cellular toxicity of all compounds was determined using the colorimetric MTT-based assay after incubation at 37 °C for 72 h in the presence of increasing concentrations of compounds (final maximal concentration was 50 μM in 0.5% DMSO per well). […] Assays were performed in duplicate at least twice to achieve a minimal n=3 per dose response.

The mark [7] stands for this setting: logarithmic trophozoites, 72 h, n = 3.

Turning to `N#Cc1cccc(-c2c[nH]c3ncc(-c4cnn(C5CCNCC5)c4)cc23)c1` [Compound 4c], the 50% effective concentration (EC50) in series [1] (setting [7]) is greater than 20 µM. Moreover, the “brain exposure in PK” value in [2] (ref Klug et al., 2021) is “negligible brain exposure”.
In the case of `c1cncc(Nc2nccc(-c3cnn4ncccc34)n2)c1` [Compound 2b], the EC50 is 1.5 ± 0.12 µM in series [1], 0.3 ± 0.21 µM in series [3] (72 h) and 5 ± 0.1 µM in series [4]. Also, the half-maximal cytotoxic concentration (CC50) at 48 h in [5] is greater than 50 µM. In addition, the “in vivo toxicity in PK study” value in [2] (10 mg/kg) is “in vivo toxicity was observed; also recorded: acute toxicity was seen”.
As to `Cc1ccc(Nc2nccc(-c3cnn4ncccc34)n2)cn1` [Compound 2d], the half-maximal effective concentration (EC50) in series [1] was 0.92 ± 0.3 µM; in [3] (72 h) it was 0.43 ± 0.13 µM; in series [4] it was 1.6 ± 0.1 µM. The same molecule yielded a CC50 at 48 h in series [5] greater than 50 µM. Further, in [2], the “in vivo toxicity in PK study” value is listed as “acute toxicity was seen”.
For the molecule `Cn1nc2c3c(cc(-c4ccnc(N)n4)cc31)Oc1ccccc1N2` [Compound 1e], the EC50 in [1] (setting [7]) is greater than 20 µM; in series [3] (ATCC30215, 72 h), greater than 20 µM; in [4] (setting [7]) it was 14 ± 0.29 µM. In series [5], this molecule gave a CC50 at 48 h greater than 50 µM. In addition, the “MRC5 TC50 ± Standard Deviation” value with MRC5 cells is recorded as greater than 50. This molecule also registered a CC50 at 72 h in [6] greater than 50 µM. In addition, the “L6 TC50 ± Standard Deviation” value with L6 cells is greater than 50. For the same molecule, the “THP-1 TC50 ± Standard Deviation” value with THP-1 is listed as greater than 50. The blood/brain ratio in series [2] (0.5 h, ref Klug et al.) is 2.4; in [2] (4 h, ref Klug et al.), 2.1.
